# Measurements taken from PMC314469, “Protein Interaction Networks by Proteome Peptide Scanning” (PLoS Biology, 2004).
# Test system: Myo5 SH3 domain
# Assay: SPOT analysis of cellulose-bound peptides (WISE), Myo5 SH3 domain (Dataset S4)
# Assay type: binding, Saccharomyces cerevisiae
# Settings: for The normalized value in BLU units: Myo5 SH3 domain
# [1] = SPOT analysis of cellulose-bound peptides probed with Myo5 SH3 domain, normalized value
# [2] = SPOT analysis of membrane-synthesized peptides probed with Myo5 SH3 domain, normalized value
# [3] = SPOT analysis of cellulose-bound 14-mer yeast proteome peptides, normalized value, mean where the peptide was synthesized more than once
# [4] = SPOT analysis of membrane-bound peptides, normalized value (see methods)
sequence,measurement,setting,value
PEVLMDQPYSPLSD,"The normalized value in BLU units (SPOT analysis, Myo5 SH3)",[1],78.7 BLU
MLFMKGSPSEPKCG,"The normalized value in BLU units (SPOT analysis, Myo5 SH3)",[2],250.7 BLU
AELLLGQPMFPGES,"The normalized value in BLU units (SPOT analysis, Myo5 SH3)",[1],172.2 BLU
KFVIHNEPIDPSDK,The normalized value in BLU units,[3],46.7 BLU
HKFVKSSPVVPFDD,"The normalized value in BLU units (SPOT analysis, Myo5 SH3)",[2],150.9 BLU
GLNLKWEPSTPQRN,The normalized value in BLU units,[4],104.8 BLU
YGDNKKNPESPESV,The normalized value in BLU units,[4],147.1 BLU
VVAVKIIPKKPWNA,"The normalized value in BLU units (SPOT analysis, Myo5 SH3)",[2],114.7 BLU
NEAPMLSPQRPYST,The normalized value in BLU units,[3],111.3 BLU
VIIGKTTPISPDEE,The normalized value in BLU units,[4],54.0 BLU
NESEKSSPWSPYKV,The normalized value in BLU units,[4],221.5 BLU
APAPPPPPQMPAT,"The normalized value in BLU units (SPOT analysis, Myo5 SH3)",[1],7749 BLU
AEFDLTDPEVPSFY,The normalized value in BLU units,[3],165.8 BLU
TPMDFPEPVGPLAI,The normalized value in BLU units,[3],175.4 BLU
ITRARYMPQDPNIV,"The normalized value in BLU units (SPOT analysis, Myo5 SH3)",[2],190.2 BLU
KRKAKAPPPPPPPP,"The normalized value in BLU units (SPOT analysis, Myo5 SH3)",[2],4025.3 BLU
IAKPYVLPFFPLYA,The normalized value in BLU units,[3],246.9 BLU
KAVHLYFPILPHCG,The normalized value in BLU units,[3],125.3 BLU
ATEAKCLPKIPSIP,The normalized value in BLU units,[4],136.7 BLU
DSVLRQKPDKPRPI,The normalized value in BLU units,[4],134.9 BLU
PPPPMGQPKDPKFE,"The normalized value in BLU units (SPOT analysis, Myo5 SH3)",[1],248.1 BLU
HELVKSDPHFPYGT,The normalized value in BLU units,[4],229.2 BLU
ILTCLPVPPPPVRP,"The normalized value in BLU units (SPOT analysis, Myo5 SH3)",[1],616.9 BLU
FFPIMSLPVTPVKS,"The normalized value in BLU units (SPOT analysis, Myo5 SH3)",[1],122.3 BLU
EFTTREGPHQPIGN,The normalized value in BLU units,[4],79.8 BLU
KKKKKNGPGAPQGY,The normalized value in BLU units,[4],328.8 BLU
NEKLHETPHLPSPV,"The normalized value in BLU units (SPOT analysis, Myo5 SH3)",[1],109.3 BLU
LDKGKHVPSKPVSN,The normalized value in BLU units,[4],200.9 BLU
IGSPRHAPSRPDSI,"The normalized value in BLU units (SPOT analysis, Myo5 SH3)",[2],193.4 BLU
AFWWKKNPKTPSDY,The normalized value in BLU units,[4],65.0 BLU
KLFVLLPPIDPKDG,The normalized value in BLU units,[3],258.2 BLU
CNYSKIFPGIPISL,"The normalized value in BLU units (SPOT analysis, Myo5 SH3)",[2],49.2 BLU
SPKKHVSPSRPPSV,"The normalized value in BLU units (SPOT analysis, Myo5 SH3)",[1],1427.8 BLU
LTIFKRPPKQPGHQ,The normalized value in BLU units,[4],702.9 BLU
IAGQRTFPEDPNYP,"The normalized value in BLU units (SPOT analysis, Myo5 SH3)",[2],171.7 BLU
NQIARQIPFQPWYL,The normalized value in BLU units,[4],247.7 BLU
INIAKAHPNFPIAL,The normalized value in BLU units,[4],195.5 BLU
VEKRKFTPIEPSLL,The normalized value in BLU units,[4],171.2 BLU
FEMVFRHPEQPHMI,The normalized value in BLU units,[3],309.9 BLU
RLLALFIPALPFII,The normalized value in BLU units,[3],264.8 BLU
PNPLKKAPIPPLAY,The normalized value in BLU units,[4],137.2 BLU
LSKVRGRPMYPRPA,The normalized value in BLU units,[4],752.4 BLU
NELVKRFPGHPPLR,The normalized value in BLU units,[4],300.5 BLU
KRRSKSLPITPKSI,The normalized value in BLU units,[4],920.9 BLU
AELFLGIPIFPGAS,"The normalized value in BLU units (SPOT analysis, Myo5 SH3)",[1],36.7 BLU
FLALFSDPARPFLT,"The normalized value in BLU units (SPOT analysis, Myo5 SH3)",[1],451.5 BLU
NTLLKVVPQEPTAV,"The normalized value in BLU units (SPOT analysis, Myo5 SH3)",[2],154.4 BLU
AKIDKVSPEDPWVL,"The normalized value in BLU units (SPOT analysis, Myo5 SH3)",[2],248.0 BLU
PPPDFNDPTAPLSS,The normalized value in BLU units,[3],152.8 BLU
GPSQFAPPPPPPGV,The normalized value in BLU units,[3],20435.9 BLU
TLIEYMGPAPPKGS,"The normalized value in BLU units (SPOT analysis, Myo5 SH3)",[1],133.3 BLU
ALEERFDPKSPTKR,"The normalized value in BLU units (SPOT analysis, Myo5 SH3)",[2],108.5 BLU
APPALSAPSVPPVP,The normalized value in BLU units,[3],6575.3 BLU
TYGFRVRPDFPVFG,The normalized value in BLU units,[3],357.0 BLU
SLKNRDGPITPSTI,The normalized value in BLU units,[3],215.1 BLU
KTSTKAQPAEPQAE,The normalized value in BLU units,[4],166.8 BLU
NKIPKHLPADPIFS,The normalized value in BLU units,[3],277.9 BLU
TSSLRKPPNGPSSV,The normalized value in BLU units,[4],143.8 BLU
ALGIFFAPESPWWL,The normalized value in BLU units,[3],229.3 BLU
EPPSWKPPDLPIRL,"The normalized value in BLU units (SPOT analysis, Myo5 SH3)",[1],86972.2 BLU
PPQMRSNPQQPPQD,"The normalized value in BLU units (SPOT analysis, Myo5 SH3)",[2],268.2 BLU
QFALKNTPITPGSC,The normalized value in BLU units,[4],111.3 BLU
TEFSRPIPPTPSGF,The normalized value in BLU units,[4],163.0 BLU
SPFSLFIPTIPATT,"The normalized value in BLU units (SPOT analysis, Myo5 SH3)",[1],151.7 BLU
KPKMLPIPSKPTLF,The normalized value in BLU units,[3],1355.0 BLU
VNTPRSVPNSPNDG,The normalized value in BLU units,[4],65.0 BLU
ILAVKKNPQSPMYT,The normalized value in BLU units,[4],175.4 BLU
EYSPRPSPWLPSKP,The normalized value in BLU units,[4],73.7 BLU
KKHDKLYPKYPSVK,"The normalized value in BLU units (SPOT analysis, Myo5 SH3)",[2],339.6 BLU
FENRKHQPFTPKGM,The normalized value in BLU units,[4],211.2 BLU
SLQQFYNPESPIQP,The normalized value in BLU units,[3],131.1 BLU
SPVNLLKPFNPTLP,"The normalized value in BLU units (SPOT analysis, Myo5 SH3)",[1],122.9 BLU
QELPMEVPKEPAPA,"The normalized value in BLU units (SPOT analysis, Myo5 SH3)",[1],138.8 BLU
LKDPKSFPPPPLKP,The normalized value in BLU units,[4],252.9 BLU
SRVTRKRPREPKST,The normalized value in BLU units,[3],829.0 BLU
INVEREAPMFPVPY,The normalized value in BLU units,[3],148.9 BLU
IEVPMEYPFKPPKM,The normalized value in BLU units,[3],384.5 BLU
VFKFLFHPVTPSHF,The normalized value in BLU units,[3],564.7 BLU
YAVGRIVPDSPTYD,"The normalized value in BLU units (SPOT analysis, Myo5 SH3)",[2],189.3 BLU
FLPVFNLPSNPALF,"The normalized value in BLU units (SPOT analysis, Myo5 SH3)",[1],154.3 BLU
LAPKREAPKPPANT,The normalized value in BLU units,[4],116079.9 BLU
ILIFLWIPDDPSKA,"The normalized value in BLU units (SPOT analysis, Myo5 SH3)",[1],1371.6 BLU
LSYLKDLPFVPFLF,The normalized value in BLU units,[4],213.0 BLU
KELPFTGPSIPFEN,"The normalized value in BLU units (SPOT analysis, Myo5 SH3)",[1],338.9 BLU
TELLKTLPFYPTPS,The normalized value in BLU units,[3],77.3 BLU
NTIIKLFPYIPIPV,The normalized value in BLU units,[4],203.7 BLU
ITDTKLFPGNPNLM,The normalized value in BLU units,[3],94.6 BLU
TLEWLLTPYTPGDD,"The normalized value in BLU units (SPOT analysis, Myo5 SH3)",[1],163.5 BLU
AKLRKFHPPEPYKG,The normalized value in BLU units,[4],119.3 BLU
NAPPRIFPKAPIYG,The normalized value in BLU units,[4],168.1 BLU
DFIGRKSPDLPEYL,The normalized value in BLU units,[4],138.7 BLU
PAPPPPPPPPPPP,"The normalized value in BLU units (SPOT analysis, Myo5 SH3)",[1],53285 BLU
AADWYEVPKVPLSA,The normalized value in BLU units,[3],275.4 BLU
DLQKKYEPSPPATH,The normalized value in BLU units,[4],224.6 BLU
LLKGYIPPYKPIVK,"The normalized value in BLU units (SPOT analysis, Myo5 SH3)",[1],168.7 BLU
ALLRRTIPKRPFYH,"The normalized value in BLU units (SPOT analysis, Myo5 SH3)",[2],914.3 BLU
AAYDHAEPVQPEDA,"The normalized value in BLU units (SPOT analysis, Myo5 SH3)",[1],146.1 BLU
ILVPHLDPIDPWEA,The normalized value in BLU units,[3],166.0 BLU
TKRQRGEPSEPQQD,The normalized value in BLU units,[4],27.7 BLU
ELRKLVQPITPIIK,"The normalized value in BLU units (SPOT analysis, Myo5 SH3)",[1],170.0 BLU
KTGRKTFPFLPYQI,The normalized value in BLU units,[4],466.0 BLU
MFTYFQEPPFPDLL,"The normalized value in BLU units (SPOT analysis, Myo5 SH3)",[1],239.3 BLU
PSSHKRKPVIPWDA,The normalized value in BLU units,[4],289.2 BLU
NGKDKSRPPRPPPK,The normalized value in BLU units,[4],2621.2 BLU
VWGPKPVPFQPMDV,The normalized value in BLU units,[4],96.9 BLU
EKYGKDQPESPVPE,The normalized value in BLU units,[4],143.3 BLU
AGHIKTHPNSPTPG,The normalized value in BLU units,[3],60.3 BLU
DLIHLDCPQQPNGY,The normalized value in BLU units,[3],219.5 BLU
HTIPKSGPIVPYVL,"The normalized value in BLU units (SPOT analysis, Myo5 SH3)",[2],163.7 BLU
EEKVKRTPPLPPVP,"The normalized value in BLU units (SPOT analysis, Myo5 SH3)",[2],586.7 BLU
TWKMHLWPVSPPQL,The normalized value in BLU units,[3],224.0 BLU
MFNLLQKPEQPHQN,The normalized value in BLU units,[3],204.0 BLU
AARILANPDHPFSR,The normalized value in BLU units,[3],165.5 BLU
DQLNRLLPNLPEEE,"The normalized value in BLU units (SPOT analysis, Myo5 SH3)",[2],47.5 BLU
SPVPLGSPRGPLPV,The normalized value in BLU units,[3],135.1 BLU
NELIKQGPKRPTSA,"The normalized value in BLU units (SPOT analysis, Myo5 SH3)",[2],175.5 BLU
FENLLMEPNLPFFT,"The normalized value in BLU units (SPOT analysis, Myo5 SH3)",[1],202.2 BLU
KKNKKKVPLNPLAK,The normalized value in BLU units,[3],522.6 BLU
NIPTKSPPKSPKHK,"The normalized value in BLU units (SPOT analysis, Myo5 SH3)",[2],12462.9 BLU
LGPLKYAPHLPFSK,The normalized value in BLU units,[4],427.6 BLU
TDLGKDIPFFPSSE,The normalized value in BLU units,[4],146.5 BLU
ILCAYNSPKVPADI,"The normalized value in BLU units (SPOT analysis, Myo5 SH3)",[1],81.4 BLU
